From US5585273A (priority 1994, dated 1996)
Where a SMILES comes first, the peptide text is derived from it. [ ]: non-standard residue; d: D form. The star is where a group is joined. Sta = CC(C)C[C@H](N)[C@@H](O)CC(=O)O; Isovaleryl = CC(C)CC(=O)*

What was measured:
[1] = test system: [Sigmacell® 20-Kappa-Casein-HRPO] conjugate; details: acetate buffer pH 4.0, 15 minutes at room temperature
Procedure: (§1) 40 mg (wet weight) [Sigmacell® 20-Kappa-Casein-HRPO] conjugate were suspended in 75 microliters acetate buffer, pH 4.0 and 25 microliters of test solution were added. The suspension was incubated at room temperature for 15 minutes and centrifuged to remove the solid phase conjugate. Five microliters of the supernatant were added to a guaiac slide, followed by five microliters of hydrogen peroxide solution.

[2] = test system: [SIGMACELL® 20-KAPPA-CASEIN-HRPO] (HYDRAZIDE METHOD) or [SIGMACELL® 20-MYOGLOBIN/HEMOGLOBIN-HRPO] (ALDEHYDE METHOD); details: acetate buffer pH 4.0, 15 minutes at room temperature
Procedure: as §1

[3] = test system: [POLYMERIC DIALDEHYDE-KAPPA-CASEIN-HRPO] conjugate; details: acetate buffer pH 4.0, 15 minutes at room temperature
Procedure: The suspension was incubated at room temperature for 15 minutes and centrifuged to remove the solid phase conjugate. Five microliters of the supernatant were added to a guaiac slide, followed by five microliters of hydrogen peroxide solution.

[4] = test system: [Chitin-Kappa-Casein-HRPO] conjugate; details: acetate buffer pH 4.0, 15 minutes at room temperature
Procedure: 40 mg (wet weight) [Chitin-Kappa-Casein-HRPO] conjugate were suspended in 75 microliters acetate buffer, pH 4.0 and 25 microliters of test solution were added. The suspension was incubated at room temperature for 15 minutes and centfifuged to remove the solid phase conjugate. Five μl of the supernatant were added to a guaiac slide, followed by five microliters of hydrogen peroxide solution.

[5] = test system: [Sepharose-Casein-HRPO] (or the Kappa-Casein equivalent) conjugate; details: acetate buffer pH 4.0, 15 minutes at room temperature
Procedure: 40 mg (wet weight) [Sepharose-Casein-HRPO] (or the Kappa-Casein equivalent) conjugate were suspended in 75 microliters acetate buffer, pH 4.0 and 25 microliters of test solution were added. The suspension was incubated at room temperature for 15 minutes and centrifuged to remove the solid phase conjugate. Five microliters of the supernatant were added to a guaiac slide, followed by five microliters of hydrogen peroxide solution.

[6] = test system: [Sepharose-Hemoglobin-HRPO] (or the myoglobin equivalent) conjugate; details: acetate buffer pH 4.0, 15 minutes at room temperature
Procedure: 40 mg (wet weight) [Sepharose-Hemoglobin-HRPO] (or the myoglobin equivalent) conjugate were suspended in 75 microliters acetate buffer, pH 4.0 and 25 microliters of test solution were added. The suspension was incubated at room temperature for 15 minutes and centrifuged to remove the solid phase conjugate. Five microliters of the supernatant were added to a guaiac slide, followed by five microliters of hydrogen peroxide solution.

[7] = test system: [Sigmacell® 20-Hemoglobin-HRPO] (or the myoglobin equivalent) conjugate; details: acetate buffer pH 4.0, 15 minutes at room temperature
Procedure: 40 mg (wet weight) [Sigmacell® 20-Hemoglobin-HRPO] (or the myoglobin equivalent) conjugate were suspended in 75 microliters acetate buffer, pH 4.0 and 25 microliters of test solution were added. The suspension was incubated at room temperature for 15 minutes and centrifuged to remove the solid phase conjugate. Five microliters of the supernatant were added to a guaiac slide, followed by five microliters of hydrogen peroxide solution.

[8] = molecular target: Candida albicans aspartic protease (Candida albicans, UniProt P0DJ06); details: Part II
Procedure: (§2) In the second part, the enzymes are preincubated with their respective inhibitors and appropriate buffers for 15 mins. These are then added to the substrate and incubated at room temp for further 15 mins.
(§3) In both cases, the reaction mixture is centrifuged to remove solid phase conjugate. The supernatant (5 μl) is added to Hemoccult® slides and developed with 5 μl of hydrogen peroxide.

[9] = test system: Candida albicans aspartic protease; details: background statement; cited from earlier work
[10] = molecular target: T1, Papain (thiol protease) from papaya latex (Carica papaya, UniProt P00784); assay: Inhibition of papain-mediated HRPO release (Experiment XV, Part 2); type: biochemical; details: Part II
T1 construct: purchased Sigma Chemical Co; host or cells: papaya latex
Procedure: as §2, §3

[11] = molecular target: T2, Trypsin (serine protease) from bovine pancreas (Bos taurus, UniProt P00760); assay: Inhibition of trypsin-mediated HRPO release (Experiment XV, Part 2); type: biochemical; details: Part II
T2 construct: purchased U.S. Biochemicals; host or cells: bovine pancreas
Procedure: as §2, §3

[12] = test system: [Eupergit® C-Myoglobin-HRPO]; assay: Activity of various proteases on Eupergit C-myoglobin-HRPO (Experiment XV); type: biochemical; details: Part I
Procedure: This assay is set up in two parts. The first is to determine the activity of the different proteases on the substrate [Eupergit® C-Myoglobin-HRPO]. The enzymes and controls (enzymes boiled for 15 min) are incubated with 20 mg of substrate and buffers (see quantities in table below) for 15 minutes prior to assay.

Candida albicans aspartic protease (Candida albicans, UniProt P0DJ06), sequence (P0DJ06 57-398): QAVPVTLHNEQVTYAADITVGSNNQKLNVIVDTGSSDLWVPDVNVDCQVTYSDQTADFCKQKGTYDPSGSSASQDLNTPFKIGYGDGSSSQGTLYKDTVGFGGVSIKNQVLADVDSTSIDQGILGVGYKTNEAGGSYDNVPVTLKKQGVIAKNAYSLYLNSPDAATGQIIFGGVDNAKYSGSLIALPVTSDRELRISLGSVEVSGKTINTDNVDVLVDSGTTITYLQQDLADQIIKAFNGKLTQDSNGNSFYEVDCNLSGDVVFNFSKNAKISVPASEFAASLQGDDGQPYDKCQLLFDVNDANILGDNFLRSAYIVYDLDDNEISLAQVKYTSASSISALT

Pepsin
blue color formation on guaiac impregnated sheet [1]: dark blue color
blue color formation on guaiac impregnated sheet [2]: dark blue color
blue color formation on guaiac impregnated sheet [3]: dark blue color
blue color formation on guaiac impregnated sheet [4]: dark blue color
blue color formation on guaiac impregnated sheet [5]: dark blue color
blue color formation on guaiac impregnated sheet [6]: dark blue color
blue color formation on guaiac impregnated sheet [7]: dark blue color

CC(C)CC(=O)N[C@H](C(=O)N[C@H](C(=O)N[C@@H](CC(C)C)[C@@H](O)CC(=O)N[C@@H](C)C(=O)N[C@@H](CC(C)C)[C@@H](O)CC(=O)O)C(C)C)C(C)C [Pepstatin, Pepstatin A] (Isovaleryl-VV[Sta]A[Sta]-OH)
inhibition of color formation by aspartic protease [8]: inhibits color formation
inhibition of Candida albicans aspartic protease [9]: strongly inhibited

Cc1ccc(S(=O)(=O)NC(CCCCN)C(=O)CCl)cc1 (stereo not drawn) [TLCK, Tosyl lysine chloromethyl ketone]
inhibition of color formation by papain [10]: inhibits color formation
inhibition of color formation by trypsin [11]: inhibits color formation

B1: Papain (boiled): papain boiled for 15 min (control) (protein, UniProt P00784 134-345, looked up)
Papain: IPEYVDWRQKGAVTPVKNQGSCGSCWAFSAVVTIEGIIKIRTGNLNEYSEQELLDCDRRSYGCNGGYPWSALQLVAQYGIHYRNTYPYEGVQRYCRSREKGPYAAKTDGVRQVQPYNEGALLYSIANQPVSVVLEAAGKDFQLYRGGIFVGPCGNKVDHAVAAVGYGPNYILIKNSWGTGWGENGYIRIKRGTGNSYGVCGLYTSSFYPVKN
modifications: heat-denatured
blue color formation on guaiac slides ([12]; pH 7.4): faintest color detectable

B2: Papain: Papain (thiol protease) from papaya latex (12 units/mg activity), 2 mg/ml (protein, UniProt P00784 134-345, looked up)
Papain: IPEYVDWRQKGAVTPVKNQGSCGSCWAFSAVVTIEGIIKIRTGNLNEYSEQELLDCDRRSYGCNGGYPWSALQLVAQYGIHYRNTYPYEGVQRYCRSREKGPYAAKTDGVRQVQPYNEGALLYSIANQPVSVVLEAAGKDFQLYRGGIFVGPCGNKVDHAVAAVGYGPNYILIKNSWGTGWGENGYIRIKRGTGNSYGVCGLYTSSFYPVKN
blue color formation on guaiac slides ([12]; pH 7.0): strong blue color

B3: Trypsin (boiled): trypsin boiled for 15 min (control) (protein, UniProt P00760 24-246, looked up)
Serine protease 1: IVGGYTCGANTVPYQVSLNSGYHFCGGSLINSQWVVSAAHCYKSGIQVRLGEDNINVVEGNEQFISASKSIVHPSYNSNTLNNDIMLIKLKSAASLNSRVASISLPTSCASAGTQCLISGWGNTKSSGTSYPDVLKCLKAPILSDSSCKSAYPGQITSNMFCAGYLEGGKDSCQGDSGGPVVCSGKLQGIVSWGSGCAQKNKPGVYTKVCNYVSWIKQTIASN
modifications: heat-denatured
blue color formation on guaiac slides ([12]; pH 7.4): faintest color detectable

B4: Trypsin: Trypsin (serine protease) from bovine pancreas (2900 units/mg activity), 2 mg/ml (protein, UniProt P00760 24-246, looked up)
Serine protease 1: IVGGYTCGANTVPYQVSLNSGYHFCGGSLINSQWVVSAAHCYKSGIQVRLGEDNINVVEGNEQFISASKSIVHPSYNSNTLNNDIMLIKLKSAASLNSRVASISLPTSCASAGTQCLISGWGNTKSSGTSYPDVLKCLKAPILSDSSCKSAYPGQITSNMFCAGYLEGGKDSCQGDSGGPVVCSGKLQGIVSWGSGCAQKNKPGVYTKVCNYVSWIKQTIASN
blue color formation on guaiac slides ([12]; pH 7.4): strong blue color
